Here are results for 9 compounds from ChEMBL document CHEMBL1201862, “PubChem BioAssay data set” (2004).

The IC50 is the point on the concentration scale where inhibition reaches its midpoint. Usually CC50 stands for the concentration that lowers cell viability or growth by half. As usually defined, the AC50 is the concentration at which the activity in the assay is half-maximal. In general, EC50 refers to the midpoint of the concentration-response curve.

In series [1] the target is T1, Dual specificity protein phosphatase 6 (Rattus norvegicus, UniProt Q64346).
T1 sequence (Q64346 whole entry): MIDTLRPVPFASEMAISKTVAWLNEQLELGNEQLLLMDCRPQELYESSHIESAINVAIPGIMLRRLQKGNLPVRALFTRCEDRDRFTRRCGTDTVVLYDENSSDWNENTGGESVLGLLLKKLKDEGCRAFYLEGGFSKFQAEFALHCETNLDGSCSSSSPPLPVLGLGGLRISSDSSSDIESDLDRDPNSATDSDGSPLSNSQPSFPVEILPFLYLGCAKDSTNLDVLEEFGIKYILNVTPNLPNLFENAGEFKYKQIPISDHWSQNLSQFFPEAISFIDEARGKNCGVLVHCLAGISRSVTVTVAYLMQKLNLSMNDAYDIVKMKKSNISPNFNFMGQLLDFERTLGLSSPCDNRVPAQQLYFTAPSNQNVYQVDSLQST

Series [2] has as its target T1, Dual specificity protein phosphatase 6. The series is classed as functional.
Series [3] addresses T2, Tyrosine-protein phosphatase non-receptor type 7 (Homo sapiens, UniProt P35236).
T2 sequence (P35236 whole entry): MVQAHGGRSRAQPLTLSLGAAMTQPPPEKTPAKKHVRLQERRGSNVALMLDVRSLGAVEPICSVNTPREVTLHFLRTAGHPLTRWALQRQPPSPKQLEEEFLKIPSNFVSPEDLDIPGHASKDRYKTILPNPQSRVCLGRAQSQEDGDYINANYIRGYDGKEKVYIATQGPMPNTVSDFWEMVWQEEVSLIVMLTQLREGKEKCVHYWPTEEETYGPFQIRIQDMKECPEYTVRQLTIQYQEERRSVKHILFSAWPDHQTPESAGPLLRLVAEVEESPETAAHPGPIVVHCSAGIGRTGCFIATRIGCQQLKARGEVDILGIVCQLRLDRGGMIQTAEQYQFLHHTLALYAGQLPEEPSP
The series is classed as functional.

Series [4] addresses Glyceraldehyde-3-phosphate dehydrogenase (Homo sapiens, UniProt P04406).
Series [5] concerns Vero. Briefly: cells. The series is classed as functional, cell-based. Conditions: Chlorocebus sabaeus.
In series [6] the test system is Vero. Briefly: cells. Type of series: functional. As to conditions: Chlorocebus sabaeus.
Another series has as its target Cytochrome P450 3A4 (Homo sapiens, UniProt P08684).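 Note: CYP3A4 tested as one member of a cytochrome P450 panel screen.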
A further series deals with T3, Cytochrome P450 1A2 (Homo sapiens, UniProt P05177).
T3 sequence (P05177 whole entry): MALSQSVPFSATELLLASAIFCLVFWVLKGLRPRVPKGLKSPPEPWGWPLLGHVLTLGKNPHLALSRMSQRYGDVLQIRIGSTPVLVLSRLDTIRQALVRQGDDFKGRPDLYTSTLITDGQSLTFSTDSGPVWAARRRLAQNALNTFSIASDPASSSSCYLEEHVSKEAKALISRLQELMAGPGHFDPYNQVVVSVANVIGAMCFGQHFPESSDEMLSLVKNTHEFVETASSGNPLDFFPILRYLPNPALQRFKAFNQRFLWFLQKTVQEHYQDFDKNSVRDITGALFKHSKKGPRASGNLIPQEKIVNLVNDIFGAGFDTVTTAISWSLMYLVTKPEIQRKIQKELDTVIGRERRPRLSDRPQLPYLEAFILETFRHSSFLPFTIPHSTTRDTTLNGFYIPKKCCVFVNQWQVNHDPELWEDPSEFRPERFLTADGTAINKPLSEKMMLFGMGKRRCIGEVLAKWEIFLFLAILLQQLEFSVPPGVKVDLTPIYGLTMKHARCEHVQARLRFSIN

A short description of series [7]: C. albicans growth with fluconazole, confirmation, fluorescence, retest (AID 2467). Type of series: functional, cell-based.
The nature of series [8]: NIH-3T3 fibroblast cytotoxicity, dose response, cytotoxicity control, cell-based, fluorescence, Alamar Blue, secondary assay (AID 2327).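 Note: NIH-3T3 mouse fibroblasts cultured with fluconazole at 8 µg/mL.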 The series is classed as functional. (In general: The colour change of resazurin is a common sign of viable cells or microbes.)
Series [9] addresses T4, Serine/threonine-protein phosphatase (Candida dubliniensis (strain CD36 / CBS 7987 / NCPF 3949 / NRRLY-17841) (Yeast), UniProt B9W6M3).
T4 sequence (B9W6M3 whole entry): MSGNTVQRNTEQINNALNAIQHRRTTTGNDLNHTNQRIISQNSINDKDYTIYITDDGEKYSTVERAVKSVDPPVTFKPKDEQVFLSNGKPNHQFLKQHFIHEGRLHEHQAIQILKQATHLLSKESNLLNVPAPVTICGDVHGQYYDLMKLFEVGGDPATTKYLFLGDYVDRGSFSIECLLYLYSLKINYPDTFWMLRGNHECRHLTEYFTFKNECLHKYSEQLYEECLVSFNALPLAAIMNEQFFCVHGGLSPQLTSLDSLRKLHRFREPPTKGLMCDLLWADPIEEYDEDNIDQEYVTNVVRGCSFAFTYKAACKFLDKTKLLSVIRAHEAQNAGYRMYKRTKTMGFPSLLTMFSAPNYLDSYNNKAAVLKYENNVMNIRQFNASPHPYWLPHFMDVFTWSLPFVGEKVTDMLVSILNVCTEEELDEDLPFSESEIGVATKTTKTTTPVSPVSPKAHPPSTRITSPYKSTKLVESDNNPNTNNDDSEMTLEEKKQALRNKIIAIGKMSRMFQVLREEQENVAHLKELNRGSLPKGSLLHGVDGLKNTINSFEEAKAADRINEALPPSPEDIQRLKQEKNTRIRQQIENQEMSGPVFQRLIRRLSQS
Briefly: calcineurin pathway inhibitors in yeast reporter, dose response, S. cerevisiae, CDRE-lacZ, luminescence, secondary (AID 2388).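 Note: yeast reporter cells carrying a calcineurin-responsive lacZ construct stimulated with calcium chloride; luminescent beta-galactosidase reporter signal in whole cells rather than isolated phosphatase activity; potency for inhibition where a drop in reporter signal means calcineurin blockade.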 The series is classed as functional, cell-based.

Series [10] addresses ATP-dependent molecular chaperone HSP82 (Candida albicans (strain WO-1) (Yeast), UniProt C4YTQ8). In words: loss of DOC-induced GRE-beta-galactosidase reporter signal, dose response, Hsp90 inhibitor project, S. cerevisiae, luminescence (AID 2400).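 Note: beta-galactosidase luminescence from glucocorticoid response element reporter as proxy for Hsp90 function; inhibitor potency where signal loss means Hsp90 inhibition.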 Type of series: functional, cell-based.
A further series concerns the target Cytochrome P450 2D6 (Homo sapiens, UniProt P10635).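 Note: CYP2D6 member of a cytochrome P450 panel assay.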
Series [11] is described as follows: Vero E6 cell cytotoxicity, dose response, cytotoxicity control for non-replicating M. tuberculosis project, secondary assay (AID 492998). Type of series: functional, VeroE6. Conditions: Vero C1008.
Another series in a line: cells. Type of series: functional.
In series [12] the target is T5, Short transient receptor potential channel 4 (Mus musculus, UniProt Q9QUQ5).
T5 sequence (Q9QUQ5 whole entry): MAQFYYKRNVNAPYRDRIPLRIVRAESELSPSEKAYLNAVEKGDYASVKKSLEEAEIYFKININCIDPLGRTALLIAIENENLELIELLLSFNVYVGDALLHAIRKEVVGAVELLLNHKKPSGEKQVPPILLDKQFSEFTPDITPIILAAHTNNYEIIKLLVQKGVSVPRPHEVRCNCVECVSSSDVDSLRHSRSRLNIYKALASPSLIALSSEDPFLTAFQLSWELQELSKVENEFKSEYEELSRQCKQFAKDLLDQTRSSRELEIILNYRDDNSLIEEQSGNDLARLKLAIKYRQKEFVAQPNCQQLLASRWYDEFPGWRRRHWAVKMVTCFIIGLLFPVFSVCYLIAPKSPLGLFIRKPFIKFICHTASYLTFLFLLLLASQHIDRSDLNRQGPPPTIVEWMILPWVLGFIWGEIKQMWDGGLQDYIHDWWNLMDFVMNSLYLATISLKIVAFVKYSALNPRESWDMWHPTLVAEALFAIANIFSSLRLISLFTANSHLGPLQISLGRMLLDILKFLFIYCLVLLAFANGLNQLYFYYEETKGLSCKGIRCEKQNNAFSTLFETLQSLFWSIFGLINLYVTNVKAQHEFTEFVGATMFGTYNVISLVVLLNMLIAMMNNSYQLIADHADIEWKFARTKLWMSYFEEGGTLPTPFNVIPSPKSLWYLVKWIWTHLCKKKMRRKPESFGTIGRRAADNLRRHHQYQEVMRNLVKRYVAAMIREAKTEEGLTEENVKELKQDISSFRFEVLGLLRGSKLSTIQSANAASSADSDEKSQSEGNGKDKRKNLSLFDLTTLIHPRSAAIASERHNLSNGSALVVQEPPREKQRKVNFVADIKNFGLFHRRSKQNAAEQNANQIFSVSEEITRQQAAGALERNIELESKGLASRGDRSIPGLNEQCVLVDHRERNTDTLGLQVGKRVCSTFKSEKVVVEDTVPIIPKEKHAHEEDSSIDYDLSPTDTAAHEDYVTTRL
Briefly: mouse TRPC4 channel activators, dose response, cell-based, HEK293 TRPC4/mu-opioid, Fluo-4 calcium (AID 434937). Type of series: functional.

The nature of series [13]: THP-1 cell cytotoxicity, dose response, cytotoxicity control for non-replicating M. tuberculosis project (AID 489025). The series is classed as functional.
Series [14] concerns Streptococcus sp. 'group A'. Briefly: growth inhibition of control SK(-) GAS strain, dose response, counter-screen for streptokinase expression inhibitor project, luminescence, kanamycin, BacTiterGlo, confirmation (AID 1900). The series is classed as functional, organism-based. (The purpose of a counterscreen is to sort out artefacts and off-target activity.)
In the next series the test system is Streptococcus. In words: Group A Streptococcus viability loss, dose response, counter-screen for streptokinase expression inhibitor project, luminescence, BacTiterGlo (AID 1915).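 Note: potency for reduction of bacterial viability or growth.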 Type of series: functional, organism-based.
The target in another series is Cytochrome P450 2C19 (Homo sapiens, UniProt P33261). In words: Cytochrome panel assay with activity outcomes. Panel member name: p450-cyp2c19 Compounds with AC50 equal or less than 10 uM are considered active. The series is classed as functional. Conditions: read-out: AC50.
Sequence of Cytochrome P450 2C19 (P33261 whole entry): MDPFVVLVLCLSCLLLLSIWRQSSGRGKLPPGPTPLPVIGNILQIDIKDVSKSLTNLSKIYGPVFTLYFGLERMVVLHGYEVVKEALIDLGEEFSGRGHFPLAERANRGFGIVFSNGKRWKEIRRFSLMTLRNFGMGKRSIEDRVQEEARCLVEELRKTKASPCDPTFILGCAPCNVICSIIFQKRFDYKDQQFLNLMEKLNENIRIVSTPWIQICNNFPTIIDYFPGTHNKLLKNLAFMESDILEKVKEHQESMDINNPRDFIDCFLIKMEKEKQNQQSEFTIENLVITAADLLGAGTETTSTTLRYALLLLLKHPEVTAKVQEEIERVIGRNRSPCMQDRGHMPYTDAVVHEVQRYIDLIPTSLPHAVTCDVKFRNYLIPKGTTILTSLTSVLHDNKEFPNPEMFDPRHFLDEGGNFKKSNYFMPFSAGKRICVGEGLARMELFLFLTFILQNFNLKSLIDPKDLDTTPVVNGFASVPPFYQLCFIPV
Series [15] has as its target T6, Voltage-gated N-type calcium channel alpha-1B subunit/Amyloid beta A4 precursor protein-binding family A member 1 (Homo sapiens, UniProt Q00975+Q02410). The series is classed as protein assay.
Series [16] relates to Escherichia coli. Briefly: microbe, parasite or virus in culture.
Series [17] concerns the target T6, Voltage-gated N-type calcium channel alpha-1B subunit/Amyloid beta A4 precursor protein-binding family A member 1. Type of series: protein assay. This is another data set of the same source.
The subject of series [18] is Vero. In words: host cell cytotoxicity of antiviral hits, dose response, cytotoxicity control for West Nile virus antiviral project, secondary assay (AID 1650). As to conditions: Chlorocebus sabaeus. The series is classed as functional.
The nature of series [19]: Luminescence Cell-Based Dose Response HTS to Identify Inhibitors of 5'UTR Stem-Loop Driven Prion Protein mRNA Translation in H4 Neuroglioblastoma Cells. [Related pubchem assays: 1827 (Project Summary), 1813 (Primary HTS)]. The series is classed as functional.
A short description of series [20]: HEp-2 cell cytotoxicity, dose response, cytotoxicity control for RSV inhibitor project, HTS (AID 2410). Type of series: functional. As to conditions: human respiratory syncytial virus.
A short description of series [21]: inhibitors of SNCA 5'UTR-driven reporter translation, confirmation, H4 neuroglioma cells, luminescence (AID 1988). Type of series: functional, cell-based.
Series [22] can be described thus: inhibitors of firefly luciferase expression or activity, dose response, H4 neuroglioma cells, luminescence (AID 1990). The series is classed as functional, cell-based.
Series [23] concerns Escherichia coli. In words: microbe, parasite or virus in culture. This is another data set of the same source.
Another series concerns HeLa. In words: HeLa cell cytotoxicity, dose response, cytotoxicity control for MITF activator project, CellTiter-Glo luminescence, cherry-pick samples (AID 540259). Type of series: functional, cell-based. As to conditions: Homo sapiens.

The structures appear in SMILES notation. The source made the active and inactive calls.

T6 sequence (Q00975 whole entry): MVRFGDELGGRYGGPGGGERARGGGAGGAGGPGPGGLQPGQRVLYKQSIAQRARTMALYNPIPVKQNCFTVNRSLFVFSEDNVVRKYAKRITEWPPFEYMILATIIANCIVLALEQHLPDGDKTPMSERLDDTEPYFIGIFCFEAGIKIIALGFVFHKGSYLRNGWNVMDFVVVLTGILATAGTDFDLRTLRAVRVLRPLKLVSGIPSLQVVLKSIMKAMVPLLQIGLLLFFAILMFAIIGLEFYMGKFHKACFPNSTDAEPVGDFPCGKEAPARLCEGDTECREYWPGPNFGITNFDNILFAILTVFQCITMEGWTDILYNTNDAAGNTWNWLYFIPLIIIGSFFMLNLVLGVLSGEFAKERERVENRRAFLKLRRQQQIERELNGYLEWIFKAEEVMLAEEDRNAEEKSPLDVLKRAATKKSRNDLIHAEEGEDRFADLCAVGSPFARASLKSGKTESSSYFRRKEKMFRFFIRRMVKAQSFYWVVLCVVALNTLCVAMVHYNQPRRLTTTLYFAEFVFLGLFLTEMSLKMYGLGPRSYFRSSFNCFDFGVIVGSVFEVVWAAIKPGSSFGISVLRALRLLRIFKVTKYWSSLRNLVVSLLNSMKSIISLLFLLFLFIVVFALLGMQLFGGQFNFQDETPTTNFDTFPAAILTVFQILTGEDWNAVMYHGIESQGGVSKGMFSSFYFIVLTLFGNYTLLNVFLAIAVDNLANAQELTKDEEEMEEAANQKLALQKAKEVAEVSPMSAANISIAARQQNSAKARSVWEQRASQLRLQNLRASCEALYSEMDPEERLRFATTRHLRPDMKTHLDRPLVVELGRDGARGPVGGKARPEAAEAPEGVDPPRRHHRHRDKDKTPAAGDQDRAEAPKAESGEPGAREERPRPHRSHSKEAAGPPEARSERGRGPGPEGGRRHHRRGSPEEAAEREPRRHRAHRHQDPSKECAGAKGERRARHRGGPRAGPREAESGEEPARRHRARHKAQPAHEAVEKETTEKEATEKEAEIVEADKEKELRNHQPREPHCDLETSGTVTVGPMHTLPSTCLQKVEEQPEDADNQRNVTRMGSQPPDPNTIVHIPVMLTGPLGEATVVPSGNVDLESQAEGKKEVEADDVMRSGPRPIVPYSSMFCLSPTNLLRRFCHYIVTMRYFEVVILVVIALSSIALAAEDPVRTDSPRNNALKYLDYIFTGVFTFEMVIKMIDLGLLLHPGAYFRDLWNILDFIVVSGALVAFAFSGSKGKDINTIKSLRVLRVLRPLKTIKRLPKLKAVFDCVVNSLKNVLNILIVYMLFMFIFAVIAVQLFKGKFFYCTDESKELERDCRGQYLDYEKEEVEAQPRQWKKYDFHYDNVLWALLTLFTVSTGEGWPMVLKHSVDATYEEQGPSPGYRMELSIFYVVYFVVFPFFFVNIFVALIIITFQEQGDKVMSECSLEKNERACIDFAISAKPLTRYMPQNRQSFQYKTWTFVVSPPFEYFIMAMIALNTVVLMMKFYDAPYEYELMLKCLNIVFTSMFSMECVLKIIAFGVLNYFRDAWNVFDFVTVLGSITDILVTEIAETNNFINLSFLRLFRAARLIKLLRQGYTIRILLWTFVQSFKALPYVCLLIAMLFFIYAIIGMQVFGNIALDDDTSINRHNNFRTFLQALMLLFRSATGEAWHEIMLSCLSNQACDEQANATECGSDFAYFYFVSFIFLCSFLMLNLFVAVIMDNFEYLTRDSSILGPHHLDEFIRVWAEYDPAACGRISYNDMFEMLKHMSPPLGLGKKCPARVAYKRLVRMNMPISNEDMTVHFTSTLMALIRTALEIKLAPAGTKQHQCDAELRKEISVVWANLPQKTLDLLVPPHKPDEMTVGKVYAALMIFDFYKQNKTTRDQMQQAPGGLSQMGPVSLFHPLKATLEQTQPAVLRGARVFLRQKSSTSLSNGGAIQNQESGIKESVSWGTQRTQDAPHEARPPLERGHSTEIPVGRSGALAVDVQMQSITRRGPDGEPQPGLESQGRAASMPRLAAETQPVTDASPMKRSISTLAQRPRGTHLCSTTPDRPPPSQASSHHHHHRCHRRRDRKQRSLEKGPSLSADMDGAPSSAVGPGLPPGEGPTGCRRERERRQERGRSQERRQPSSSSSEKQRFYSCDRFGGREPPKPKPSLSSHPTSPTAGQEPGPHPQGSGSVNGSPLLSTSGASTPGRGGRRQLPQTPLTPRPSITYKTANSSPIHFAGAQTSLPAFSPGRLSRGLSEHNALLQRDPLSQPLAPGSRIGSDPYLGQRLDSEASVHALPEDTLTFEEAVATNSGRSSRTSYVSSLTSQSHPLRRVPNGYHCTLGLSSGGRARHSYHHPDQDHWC
T6 sequence (Q02410 whole entry): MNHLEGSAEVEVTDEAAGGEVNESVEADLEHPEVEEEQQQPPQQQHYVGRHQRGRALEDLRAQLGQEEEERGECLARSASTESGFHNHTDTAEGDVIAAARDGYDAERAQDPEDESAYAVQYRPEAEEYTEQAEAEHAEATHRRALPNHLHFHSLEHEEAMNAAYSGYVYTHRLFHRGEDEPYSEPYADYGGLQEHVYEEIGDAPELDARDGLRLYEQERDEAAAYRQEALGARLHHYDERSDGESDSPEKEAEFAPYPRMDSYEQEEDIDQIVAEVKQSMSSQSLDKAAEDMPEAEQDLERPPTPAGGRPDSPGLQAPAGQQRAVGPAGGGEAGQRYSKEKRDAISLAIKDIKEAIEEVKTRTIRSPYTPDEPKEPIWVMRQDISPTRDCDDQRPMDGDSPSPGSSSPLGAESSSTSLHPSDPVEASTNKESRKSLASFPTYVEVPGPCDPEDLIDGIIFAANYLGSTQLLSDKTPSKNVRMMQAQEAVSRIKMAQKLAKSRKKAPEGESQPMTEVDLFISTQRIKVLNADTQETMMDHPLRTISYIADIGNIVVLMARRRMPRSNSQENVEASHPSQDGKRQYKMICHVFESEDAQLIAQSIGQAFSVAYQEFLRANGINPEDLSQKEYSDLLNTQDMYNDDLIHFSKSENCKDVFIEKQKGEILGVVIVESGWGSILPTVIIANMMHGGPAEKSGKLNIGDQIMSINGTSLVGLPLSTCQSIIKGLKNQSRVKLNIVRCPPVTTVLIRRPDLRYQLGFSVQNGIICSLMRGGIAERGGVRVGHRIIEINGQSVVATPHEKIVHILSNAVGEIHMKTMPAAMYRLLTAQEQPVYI
Sequence of Glyceraldehyde-3-phosphate dehydrogenase (P04406 whole entry): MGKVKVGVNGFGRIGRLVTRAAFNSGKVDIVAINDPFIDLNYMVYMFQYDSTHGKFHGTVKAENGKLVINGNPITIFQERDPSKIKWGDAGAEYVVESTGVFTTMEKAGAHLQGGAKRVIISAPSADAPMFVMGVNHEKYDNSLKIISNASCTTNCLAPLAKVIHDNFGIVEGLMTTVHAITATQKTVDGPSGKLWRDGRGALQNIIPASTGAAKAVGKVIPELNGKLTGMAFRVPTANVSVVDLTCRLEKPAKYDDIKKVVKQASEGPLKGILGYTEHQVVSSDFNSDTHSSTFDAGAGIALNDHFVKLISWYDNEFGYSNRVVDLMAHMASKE
Sequence of ATP-dependent molecular chaperone HSP82 (C4YTQ8 whole entry): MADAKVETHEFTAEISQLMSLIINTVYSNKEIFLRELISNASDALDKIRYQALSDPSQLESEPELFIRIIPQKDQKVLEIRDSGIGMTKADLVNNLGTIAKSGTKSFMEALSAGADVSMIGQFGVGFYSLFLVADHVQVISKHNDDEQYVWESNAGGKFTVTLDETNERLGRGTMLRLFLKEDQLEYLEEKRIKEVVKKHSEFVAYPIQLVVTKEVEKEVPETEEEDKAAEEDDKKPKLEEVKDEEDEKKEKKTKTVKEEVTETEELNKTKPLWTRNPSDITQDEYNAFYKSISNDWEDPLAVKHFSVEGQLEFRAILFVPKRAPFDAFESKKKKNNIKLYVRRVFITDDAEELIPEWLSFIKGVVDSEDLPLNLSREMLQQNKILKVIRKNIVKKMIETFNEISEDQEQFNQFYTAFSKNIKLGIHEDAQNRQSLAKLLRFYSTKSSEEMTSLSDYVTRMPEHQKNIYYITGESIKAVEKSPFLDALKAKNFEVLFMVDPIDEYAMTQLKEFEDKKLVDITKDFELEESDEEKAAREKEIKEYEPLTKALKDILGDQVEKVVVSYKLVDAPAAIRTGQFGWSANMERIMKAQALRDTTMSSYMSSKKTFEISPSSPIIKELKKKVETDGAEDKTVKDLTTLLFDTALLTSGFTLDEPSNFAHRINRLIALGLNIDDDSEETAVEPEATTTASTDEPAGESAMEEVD

With `CCn1c(=O)n(Cc2ccccc2C)c(=O)n([C@@H](Cc2ccccc2)C(=O)O)c1=O`, the IC50 was > 100 µM (inactive) in [1], > 100 µM (inactive) in [2], > 100 µM (not active) in series [3] and > 100 µM (not active) in series [4].
Regarding `S=C1SCN(CCN2CCOCC2)CN1Cc1ccccc1`, in the series with Vero [5], the IC50 was > 25 µM (active). The CC50 in the series on Vero [6] is 24.4 µM (active). Moreover, the AC50 was 28.2 µM (inconclusive) on Cytochrome P450 3A4 and 6.31 µM (inconclusive) at Cytochrome P450 1A2.
Regarding `C=CCN(CC=C)Cc1c(O)ccc2c(=O)c(-c3ccccc3)coc12`, the EC50 in [7] was < 0.03 µM (active); in series [8], 131 µM (active); in series [9], > 180 µM (inactive); in series [10] it was > 150 µM (inactive).
On to `Cc1ccc(C(=O)NNC(=S)NC(=O)c2ccc(Cl)cc2)cc1`, for which the AC50 result on Cytochrome P450 2D6 is “inconclusive”; on Cytochrome P450 2C19, 35.5 µM (inconclusive). Also, the figures for the CC50 in [11] and in series [13] were 17 µM (active) and 22.9 µM (active), respectively. Further, the IC50 in the series “cells” is < 0.1 µM (active). The EC50 in series [12] is 2.11 µM (active); in series [14], 0.182 µM (active); with Streptococcus, 3.71 µM (active).
With `O=C(O)CCc1ccc(-c2cccs2)o1`, the IC50 in series [15] is 3.13 µM (active); in series [17] it was 21.3 µM (active). The AC50 with Escherichia coli [16] is > 380 µM (inactive).
As to `O=S(=O)(c1cccs1)N1CCN(c2ccnc3cc(Cl)ccc23)CC1`, in the series with Vero [5], the half-inhibitory concentration (IC50) was > 25 µM (active). In addition, the CC50 with Vero [6] was 22 µM (active); with Vero [18], 30 µM (active); in series [20], 14.3 µM (active). Also, the EC50 in series [19] is 13.1 µM (active); in series [21] it was > 120 µM (not active); in series [22], 13.5 µM (active).
In the case of `O=C(CSCc1ccc(Cl)cc1)Nc1ccc(-c2nnc(-c3ccccc3)o2)cc1`, the results for the AC50 in the series on Escherichia coli [16] and in the series with Escherichia coli [23] were 58.8 µM (active) and 23.9 µM (active), respectively.
As for `Cc1ccc(-c2noc(C3CCCCC3)n2)cc1`, the concentration at half-maximal activity (AC50) with HeLa is 79.6 µM (active).
Turning to `CN(/N=C/c1ccc2c(c1)OCO2)c1ccccc1`, in the series with HeLa, the AC50 is 98.3 µM (active).
